This passage reports IC50 results from patent US12059425B2, “Heterocyclic compounds and uses thereof” (Kumquat Biosciences Inc., priority 2022, dated 2024).

One test concerns the target T1, wildtype K-Ras (Homo sapiens, UniProt P01116).
T1 construct: made in house; host or cells: E. coli, e.g. BL21 (DE3)
The test is described as follows: PPI-HTRF assay, wildtype K-Ras / SOS1 interaction. The class given is biochemical. The settings on record: HTRF, K-Ras wt; read-out: PPI-HTRF-5 nM (K-Ras wt IC50). From the text: (§1) This assay can be also used to assess a selective inhibition or reduction of signaling output of a mutant Ras protein relative to a wildtype, or relative to a different mutant Ras protein. For example, the equilibrium interaction of wildtype Kras or K-Ras mutant (e.g., wildtype or a mutant thereof) with SOS1 (e.g., hSOS1) can be assessed as a proxy or an indication for a subject compound's ability to bind and inhibit Ras protein. HTRF assay detects from (i) a fluorescence resonance energy transfer (FRET) donor (e.g., antiGST-Europium) that is bound to GST-tagged K-Ras mutant to (ii) a FRET acceptor (e.g., anti-6His-XL665) bound to a His-tagged hSOS1.
(§2) The assay buffer can contain ˜5 mM HEPES pH 7.4, ˜150 mM NaCl, ˜1 mM DTT, 0.05% BSA and 0.0025% (v/v) Igepal. A Ras working solution is prepared in an assay buffer containing typically a suitable amount of the protein construct (e.g., GST-tagged K-Ras mutant) and the FRET donor (e.g., antiGST-Eu(K) from Cisbio, France). A SOS1 working solution is prepared in an assay buffer containing suitable amount of the protein construct (e.g., His-hSOS1) and the FRET acceptor (e.g., anti-6His-XL665 from Cisbio, France). A suitable amount of the protein construct will depend on the range of activity or range of IC50 values being detected or under investigation. For detecting IC50 within a range of 500 nM, the protein constructs of the same range of molarity can be utilized.
(§3) A fixed volume of DMSO with or without test compound is transferred into a 384-well plate. Ras working solution is added to all wells of the test plate. SOS1 working solution is added to all wells except for those that are subsequently filled the inhibitor control solution. Upon incubation for about 10 minutes or longer, the fluorescence is measured with a M1000Pro plate reader (Tecan) using HTRF detection (excitation 337 nm, emission 1: 620 nm, emission 2: 665 nm). Compounds are tested in duplicate at different concentrations (for example, 10 μM, 2.5 μM, 0.63 μM, 0.16 μM, 0.04 μM, 0.01 μM test compound). The ratiometric data (i.e., emission 2 divided by emission 1) is used to calculate IC50 values against Ras using GraphPad Prism (GraphPad software). Following this general procedure, samples are tested with or without a subject compound disclosed herein including compounds exemplified in Table 1 to assess their abilities to inhibit a mutant K-Ras relative to another K-Ras (e.g., different mutant or wildtype). Signaling output measured in terms of IC50 values can be obtained, a ratio of IC50 against one mutant relative to another mutant can be calculated. For instance, a selective reduction of K-Ras G12D signaling output can be evidenced by a ratio greater than one. In particular, a selective reduction of K-Ras G12D signaling relative to K-Ras WT signaling is evidenced if the ratio of IC50 (against K-Ras WT) to IC50 (against K-Ras G12D) is greater than 1.

Another test has as its system GP2D cells. Nature of the test: Ras cellular assay, cell proliferation GP2D. The class given is cell-based. On the procedure:
(§4) For example, this assay can be also used to assess selective growth inhibition of a mutant Ras protein relative to a wildtype, or relative to a different mutant Ras protein.
ASPC-1 (ATCC CRL-1682), Panc-10.05 (ATCC CRL-2547), A427, GP2d cell lines or any other cell lines comprising a G12D mutation can be used to assess Ras cellular signaling in vitro, e.g., in response to a compound described herein. For example, ASPC-1 culture medium is prepared with RPMI-1640 and 10% heat-inactivated FBS. Panc-10.05 culture medium is prepared with RPMI-1640, 10 Units/mL human recombinant insulin, and 10% FBS. A427 cell culture is prepared with RPMI-1640 and 10% heat-inactivated FBS. A CellTiter-Glo (CTG) luminescent based assay (Promega) is used to assess growth of the cells, as a measurement of the ability of the compounds herein to inhibit Ras signaling in the cells. The cells (e.g., 800 per well) are seeded in their respective culture medium in standard tissue culture-treated 384-well format plates (Falcon #08-772-116) or ultra-low attachment surface 384-well format plates (S-Bio #MS-9384UZ). The day after plating, cells are treated with a dilution series (e.g., a 9 point 3-fold dilution series) of the compounds herein (e.g., approximately 40 μL final volume per well). Cell viability can be monitored (e.g., approximately 5 days later) according to the manufacturer's recommended instructions, where the CellTiter-Glo reagent is added (e.g., approximately 10 μL), vigorously mixed, covered, and placed on a plate shaker (e.g., approximately for 20 min) to ensure sufficient cell lysis prior to assessment of luminescent signal. The IC50 values are determined using the four parameter fit. The resulting IC50 value is a measurement of the ability of the test compound to reduce cell growth of Ras-driven cells (e.g., tumor cell lines) in vitro and/or in vivo.

The target in a further test is T2, K-Ras G12S (Homo sapiens, UniProt P01116, G12S).
T2 construct: made in house; host or cells: E. coli, e.g. BL21 (DE3)
The test is described as follows: PPI-HTRF assay, K-Ras G12S / SOS1 interaction. The test is classed as biochemical. The conditions noted are these: read-out: PPI-HTRF-5 nM (K-Ras G12S IC50).
Source text: as §1, §2, §3

The target of a further test is T3, K-Ras G12D (Homo sapiens, UniProt P01116, G12D).
T3 construct: made in house; host or cells: E. coli, e.g. BL21 (DE3)
The test is described as follows: PPI-HTRF assay, K-Ras G12D / SOS1 interaction. The class given is biochemical. The settings on record: HTRF, K-Ras G12D; read-out: PPI-HTRF-5 nM (K-Ras G12D IC50).
Source text: as §1, §2, §3

For the next test, the system named is SW620 cells. Nature of the test: Ras cellular assay, cell proliferation SW620. The conditions noted are these: Homo sapiens, SW-620. The class given is cell-based.
Source text: as §4

The next test deals with T4, K-Ras G12V (Homo sapiens, UniProt P01116, G12V).
T4 construct: made in house; host or cells: E. coli, e.g. BL21 (DE3)
The test is described as follows: PPI-HTRF assay, K-Ras G12V / SOS1 interaction. The class given is biochemical. The settings on record: HTRF, K-Ras G12V; read-out: PPI-HTRF-5 nM (K-Ras G12V IC50).
Source text: as §1, §2, §3
(In TR-FRET formats the signal depends on donor and acceptor labels being close together.)

pIC50: −log10 of the molar value. Bounds are passed on as bounds.

T4 sequence (P01116 1-188 isoform P01116-2 G12V): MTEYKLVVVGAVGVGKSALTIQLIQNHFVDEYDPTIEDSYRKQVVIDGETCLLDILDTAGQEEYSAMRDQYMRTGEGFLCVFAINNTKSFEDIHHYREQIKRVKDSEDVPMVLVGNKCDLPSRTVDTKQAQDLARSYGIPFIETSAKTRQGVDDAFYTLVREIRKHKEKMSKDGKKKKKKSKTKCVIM
T3 sequence (P01116 1-188 isoform P01116-2 G12D): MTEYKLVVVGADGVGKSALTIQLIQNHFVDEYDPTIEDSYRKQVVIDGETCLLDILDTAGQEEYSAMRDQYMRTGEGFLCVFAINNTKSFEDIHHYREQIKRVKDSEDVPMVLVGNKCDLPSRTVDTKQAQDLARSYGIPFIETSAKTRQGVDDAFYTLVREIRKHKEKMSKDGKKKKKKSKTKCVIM
T1 sequence (P01116 1-188 isoform P01116-2): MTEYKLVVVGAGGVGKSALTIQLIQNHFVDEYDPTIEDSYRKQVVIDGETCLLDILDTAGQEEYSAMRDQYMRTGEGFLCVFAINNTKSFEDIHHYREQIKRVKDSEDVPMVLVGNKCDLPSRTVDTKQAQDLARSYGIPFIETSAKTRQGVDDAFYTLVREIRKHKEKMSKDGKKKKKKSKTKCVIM
T2 sequence (P01116 1-188 isoform P01116-2 G12S): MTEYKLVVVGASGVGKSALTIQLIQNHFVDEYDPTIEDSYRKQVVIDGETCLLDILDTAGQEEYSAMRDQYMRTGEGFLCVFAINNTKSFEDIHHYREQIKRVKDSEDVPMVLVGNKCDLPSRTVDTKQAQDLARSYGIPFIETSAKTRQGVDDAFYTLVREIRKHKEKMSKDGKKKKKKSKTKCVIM

What is called pIC50 is the negative decadic logarithm of the IC50, by convention in mol/L. On to `CC(CN(C)C)N1c2nc(OC[C@@]34CCCN3C[C@H](F)C4)nc3c(F)c(-c4ccc(F)c5sc(N)c(C#N)c45)c(Cl)c(c23)OCC2COCC21` (stereo partly drawn) [compound 102, 2-amino-4-(6-chloro-12-(1-(dimethylamino)propan-2-yl)-4-fluoro-2-(((2R,7aS)-2-fluorotetrahydro-1H-pyrrolizin-7a(5H)-yl)methoxy)-8a,9,11a,12-tetrahydro-8H,11H-furo[3′,4′:6,7][1,5]oxazocino[4,3,2-de]quinazolin-5-yl)-7-fluorobenzo[b]thiophene-3-carbonitrile], for which the pIC50 was over 5.30 on wildtype K-Ras; over 5.30 with GP2D cells; over 5.30 at K-Ras G12S; over 5.30 on K-Ras G12D; under 5.30 in the test on SW620 cells; over 5.30 at K-Ras G12V.

Consider `N#Cc1c(N)sc2c(F)ccc(-c3c(Cl)c4c5c(nc(OC[C@@]67CCCN6C[C@H](F)C7)nc5c3F)N3C[C@H](NC(=O)[C@H]5CN5)C[C@H]3CO4)c12` [compound 111, (2R)-N-((2R,12aS)-9-(2-amino-3-cyano-7-fluorobenzo[b]thiophen-4-yl)-10-chloro-8-fluoro-6-(((2R,7aS)-2-fluorotetrahydro-1H-pyrrolizin-7a(5H)-yl)methoxy)-2,3,12,12a-tetrahydro-1H-pyrrolo[2′,1′:,4][1,4]oxazepino[5,6,7-de]quinazolin-2-yl)aziridine-2-carboxamide], for which the pIC50 at wildtype K-Ras is over 5.30; in the test on GP2D cells it was under 5.30; at K-Ras G12S, over 5.30; at K-Ras G12D it was over 5.30; with SW620 cells it was under 5.30; on K-Ras G12V it was over 5.30.

`N#Cc1c(N)sc2c(F)ccc(-c3c(Cl)c4c5c(nc(OC[C@@]67CCCN6C[C@H](F)C7)nc5c3F)N3CCC[C@@H]3CC(CO)O4)c12` (single isomer, unassigned) [compound 177]: the pIC50 on wildtype K-Ras, with GP2D cells, at K-Ras G12S, on K-Ras G12D, with SW620 cells and at K-Ras G12V was over 5.30 each time.

Regarding `N#Cc1c(N)sc2c(F)ccc(-c3c(Cl)c4c5c(nc(OC[C@@]67CCCN6C[C@H](F)C7)nc5c3F)N3C[C@H](O)C[C@@H]3CCO4)c12` [compound 164, 2-amino-4-((2R,13aS)-10-chloro-8-fluoro-6-(((2R,7aS)-2-fluorotetrahydro-1H-pyrrolizin-7a(5H)-yl)methoxy)-2-hydroxy-1,2,3,12,13,13a-hexahydropyrrolo[1′,2′:5,6][1,5]oxazocino [4,3,2-de]quinazolin-9-yl)-7-fluorobenzo[b]thiophene-3-carbonitrile], the pIC50 on wildtype K-Ras, in the test on GP2D cells, at K-Ras G12S, at K-Ras G12D, in the test on SW620 cells and at K-Ras G12V was over 5.30 in each case.

As for `CN(C)CCN1c2nc(OC[C@@]34CCCN3C[C@H](F)C4)nc3c(F)c(-c4ccc(F)c5sc(N)c(C#N)c45)c(Cl)c(c23)OCC2COCC21` (stereo partly drawn) [compound 106, 2-amino-4-(6-chloro-12-(2-(dimethylamino)ethyl)-4-fluoro-2-(((2R,7aS)-2-fluorotetrahydro-1H-pyrrolizin-7a(5H)-yl)methoxy)-8a,9,11a,12-tetrahydro-8H,11H-furo[3′,4′:6,7][1,5]oxazocino[4,3,2-de]quinazolin-5-yl)-7-fluorobenzo[b]thiophene-3-carbonitrile], the pIC50 at wildtype K-Ras, in the test on GP2D cells, at K-Ras G12S, on K-Ras G12D, with SW620 cells and at K-Ras G12V was over 5.30 in each case.

As for `CNCC(C)N1c2nc(OC[C@@]34CCCN3C[C@H](F)C4)nc3c(F)c(-c4ccc(F)c5sc(N)c(C#N)c45)c(Cl)c(c23)OCC2COCC21` (stereo partly drawn) [compound 109, 2-amino-4-(6-chloro-4-fluoro-2-(((2R,7aS)-2-fluorotetrahydro-1H-pyrrolizin-7a(5H)-yl)methoxy)-12-(1-(methylamino)propan-2-yl)-8a,9,11a,12-tetrahydro-8H,11H-furo[3′,4′:6,7][1,5]oxazocino[4,3,2-de]quinazolin-5-yl)-7-fluorobenzo[b]thiophene-3-carbonitrile], the pIC50 is over 5.30 on wildtype K-Ras; under 5.30 with GP2D cells; over 5.30 on K-Ras G12S; over 5.30 at K-Ras G12D; under 5.30 in the test on SW620 cells; over 5.30 on K-Ras G12V.

Turning to `N#Cc1c(N)sc2c(F)ccc(-c3c(Cl)c4c5c(nc(OC[C@@]67CCCN6C[C@H](F)C7)nc5c3F)N(CC(F)F)CC3COCC3O4)c12` (stereo partly drawn) [compound 112, 2-amino-4-(1-chloro-7-(2,2-difluoroethyl)-3-fluoro-5-(((2R,7aS)-2-fluorotetrahydro-1H-pyrrolizin-7a(5H)-yl)methoxy)-7,8,8a,9,11,11a-hexahydrofuro[3′,4′:7,8][1,5]oxazocino [4,3,2-de]quinazolin-2-yl)-7-fluorobenzo[b]thiophene-3-carbonitrile], the pIC50 was over 5.30 at wildtype K-Ras; under 5.30 in the test on GP2D cells; over 5.30 at K-Ras G12S; over 5.30 on K-Ras G12D; over 5.30 with SW620 cells; over 5.30 at K-Ras G12V.

In the case of `N#Cc1c(N)sc2c(F)ccc(-c3c(Cl)c4c5c(nc(OC[C@@]67CCCN6C[C@H](F)C7)nc5c3F)N3CCC[C@@H]3CC(C(F)F)O4)c12` (single isomer, unassigned) [compound 212], the pIC50 in the test with GP2D cells, on K-Ras G12D and in the test on SW620 cells was over 5.30 throughout.
